From patent US20240261274A1, “TREATMENT OF MYC-DRIVEN CANCERS WITH GSPT1 DEGRADERS” (MONTE ROSA THERAPEUTICS, INC., priority 2021, published 2024) come the findings set out here.

Some results are limits rather than exact numbers.

One data set deals with GSPT1 (Homo sapiens, UniProt P15170+Q96SW2). Nature of the data set: GSPT1 degradation immunofluorescence assay in CAL-51 cells. Details: endogenous in cells; host or cells: CAL-51 (DSMZ ACC302). As to conditions: 6 hours, Table 4, read-out: Activity for GSPT1 degradation, Code (DC50). The format is cell-based. The procedure, abridged: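 CAL-51 cells on fibronectin treated 6 h with compound (typically 30 μM to 0.1 nM), then fixed, permeabilised and immunostained for GSPT1, with phalloidin and DAPI. High-content imaging gave mean GSPT1 intensity per segmented cell. DC50 from non-linear regression after normalisation to DMSO and CC-885 (10 μM) controls.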

Another data set has as its target T1, ZFP91 (Homo sapiens, UniProt Q96JP5+Q96SW2).
T1 construct: endogenous in cells; host or cells: MM1 S (ATCC CRL-2974)
Nature of the data set: Selectivity western blot assay in MM1 S cells, ZFP91. Format: cell-based. More on the design: key: A represents no degradation observed at 30 μM; B represents trace degradation at 30 μM (below 20%); C represents weak degradation at 30 μM (below 50%); D represents degradation at 30 μM (>90%); E represents degradation at 3 μM (>90%); F represents degradation at 0.3 μM (>90%). As to conditions: MM1 S cells, 0.3, 3 and 30 μM, 6 hours. The protocol:
MM1 S cells were purchased from ATCC (cat. Number CRL-2974), sub-cultured in 90% RPMI 1640 with 10% FBS, supplemented with 1×P/S and incubated at 37° C., 5% CO2. Compounds were stored as 10 mM DMSO stock. For the assay, MM1 S cells (3 million cells/well) were plated in 6-well plates and incubated over night. Cells were treated with respective compounds using a serial dilution: 0.3 μM, 3 μM and 30 μM as well as a vehicle only (DMSO) control for 6 hours. Media with suspension cells was subsequently transferred to 15 mL conical tubes, wells rinsed twice with ice-cold PBS and merged with cell suspension in respective 15 mL conical tube. Cells were spinned down, supernatant aspirated, pellets resuspended in ice-cold PBS and transferred to microtubes. Cells were spinned down, supernatant aspirated and pellets resuspended in 120 μL RIPA lysis buffer supplemented with protease and phosphatase inhibitors. Cell lysates were incubated on ice for 20 minutes followed by centrifugation at >20,000×g for 5 min. Supernatants were transferred to fresh microtubes and stored at −80° C. Total protein concentration was determined using a BCA assay with a BSA standard curve and concentration of all samples was adjusted to 1 mg/mL. 25 μL 4×LDS sample buffer supplemented with 100 mM DTT was added to 75 μL sample. Samples were centrifuged (8,000×g, 1 min) and incubated at 95° C. for 5 min followed by another centrifugation step (8,000×g, 1 min). 20 μL of each sample was loaded on a 4-12% gel alongside a protein molecular weight marker. Gels were run in the presence of MOPS buffer at 80 Volts for 30 min, followed by 120 Volts for 1.5 h and proteins subsequently transferred onto nitrocellulose membranes at 20 Volts for 7 min using an iBlot2 Gel Transfer Device. Membranes were then cut horizontally into two pieces, covering 80-50 kDa and 50-25 kDa. Blocking the membranes was performed by gently shaking in 5% (w/v) skim milk in TSB-T for 1 hr at room temperature. All primary antibodies were used at a 1/1000 in 5% (w/v) BSA dissolved in TBST and incubated with membranes over night at 4° C. After three washes with 1×TBST for 5 min, HRP-coupled secondary antibodies diluted in 5% (w/v) BSA/TBST (Goat Anti-Rb IgG, dil. 1/10,000; Goat Anti-Mouse IgG, dil. 1/5000) were added for 1 hr at room temperature. After three washes with 1×TBST (5 minutes each), membranes were incubated with ECL reagent for 1 min at room temperature. Chemiluminescence signals were then detected using a LAS-4000 system with default settings and signals quantified using Image Studio Lite software (version 5.2). Membrane parts previously incubated with antibody against CK1 alpha were stripped off antibodies by incubating with stripping buffer for 30 minutes followed by three washed with TBST (5 min each), blocking with 5% (w/v) skim milk for 1 hr, and incubation with primary antibody against uGAPDH overnight at 4° C. Subsequent washes, incubation with secondary antibody and signal acquisition were performed as described above.

For data set [1], the system named is human cell line NCI-H526 xenograft. Nature of the data set: N-Myc-driven mouse xenograft model, NCI-H526, compound 210 oral. Format: in vivo.
Another data set has as its system MM1S cell line. Description: Caspase 3/7 apoptosis Glo assay in MM1S. The format is cell-based. Conditions: 48 hr treatment.

Chain of GSPT1 (P15170 whole entry): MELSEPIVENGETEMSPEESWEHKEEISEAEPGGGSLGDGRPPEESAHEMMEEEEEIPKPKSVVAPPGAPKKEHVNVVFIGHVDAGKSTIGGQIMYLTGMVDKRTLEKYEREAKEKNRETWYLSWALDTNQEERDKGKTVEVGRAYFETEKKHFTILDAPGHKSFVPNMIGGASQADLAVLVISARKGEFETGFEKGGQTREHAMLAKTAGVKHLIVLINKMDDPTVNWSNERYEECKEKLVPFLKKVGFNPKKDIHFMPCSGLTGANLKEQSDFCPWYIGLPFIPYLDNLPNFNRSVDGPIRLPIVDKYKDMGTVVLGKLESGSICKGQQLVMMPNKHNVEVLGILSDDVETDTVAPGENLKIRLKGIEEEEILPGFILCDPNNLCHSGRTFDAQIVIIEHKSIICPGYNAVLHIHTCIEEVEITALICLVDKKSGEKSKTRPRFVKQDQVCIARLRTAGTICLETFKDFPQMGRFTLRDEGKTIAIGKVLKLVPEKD
Chain of GSPT1 (Q96SW2 whole entry): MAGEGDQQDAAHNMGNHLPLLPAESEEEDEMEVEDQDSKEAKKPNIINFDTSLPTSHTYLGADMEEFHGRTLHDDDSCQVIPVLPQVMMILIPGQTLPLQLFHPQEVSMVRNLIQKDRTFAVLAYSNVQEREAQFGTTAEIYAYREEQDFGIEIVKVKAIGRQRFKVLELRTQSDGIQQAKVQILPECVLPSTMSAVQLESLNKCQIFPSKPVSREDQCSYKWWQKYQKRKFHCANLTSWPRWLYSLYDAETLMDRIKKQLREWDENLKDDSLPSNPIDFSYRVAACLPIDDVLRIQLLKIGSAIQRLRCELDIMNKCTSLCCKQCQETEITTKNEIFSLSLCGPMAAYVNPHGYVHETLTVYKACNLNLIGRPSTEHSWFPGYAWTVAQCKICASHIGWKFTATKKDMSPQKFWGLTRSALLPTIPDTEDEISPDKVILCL
Chain of GSPT1 (Q16531 whole entry partner): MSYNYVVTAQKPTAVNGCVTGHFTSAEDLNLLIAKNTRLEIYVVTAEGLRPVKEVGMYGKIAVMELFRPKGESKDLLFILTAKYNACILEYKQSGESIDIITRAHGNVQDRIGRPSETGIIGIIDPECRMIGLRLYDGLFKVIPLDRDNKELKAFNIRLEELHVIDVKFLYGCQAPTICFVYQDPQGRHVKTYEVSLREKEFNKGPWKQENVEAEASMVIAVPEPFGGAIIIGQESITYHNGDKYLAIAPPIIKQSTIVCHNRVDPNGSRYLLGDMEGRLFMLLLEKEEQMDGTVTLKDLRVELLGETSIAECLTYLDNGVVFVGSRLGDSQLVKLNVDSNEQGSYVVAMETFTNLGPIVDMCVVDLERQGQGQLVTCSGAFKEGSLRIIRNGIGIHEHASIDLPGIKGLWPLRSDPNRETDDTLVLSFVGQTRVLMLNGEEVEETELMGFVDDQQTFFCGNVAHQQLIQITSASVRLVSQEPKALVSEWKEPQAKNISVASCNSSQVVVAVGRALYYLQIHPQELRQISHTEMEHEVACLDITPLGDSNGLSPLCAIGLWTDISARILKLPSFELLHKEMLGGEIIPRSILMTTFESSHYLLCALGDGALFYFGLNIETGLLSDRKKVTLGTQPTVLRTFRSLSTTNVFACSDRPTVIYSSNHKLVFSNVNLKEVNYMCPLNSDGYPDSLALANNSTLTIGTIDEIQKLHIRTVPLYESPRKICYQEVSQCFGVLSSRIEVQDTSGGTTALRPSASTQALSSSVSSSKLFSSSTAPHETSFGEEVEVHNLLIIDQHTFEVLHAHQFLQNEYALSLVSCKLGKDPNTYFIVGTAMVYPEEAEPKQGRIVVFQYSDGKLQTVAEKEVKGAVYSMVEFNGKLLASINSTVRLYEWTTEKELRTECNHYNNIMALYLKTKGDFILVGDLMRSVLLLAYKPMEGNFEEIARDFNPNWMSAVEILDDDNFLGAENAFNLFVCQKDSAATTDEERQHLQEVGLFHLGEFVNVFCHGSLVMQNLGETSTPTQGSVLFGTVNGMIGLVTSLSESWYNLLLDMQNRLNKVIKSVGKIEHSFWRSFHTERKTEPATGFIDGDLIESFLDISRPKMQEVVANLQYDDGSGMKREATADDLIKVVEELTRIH
T1 sequence (Q96JP5 whole entry): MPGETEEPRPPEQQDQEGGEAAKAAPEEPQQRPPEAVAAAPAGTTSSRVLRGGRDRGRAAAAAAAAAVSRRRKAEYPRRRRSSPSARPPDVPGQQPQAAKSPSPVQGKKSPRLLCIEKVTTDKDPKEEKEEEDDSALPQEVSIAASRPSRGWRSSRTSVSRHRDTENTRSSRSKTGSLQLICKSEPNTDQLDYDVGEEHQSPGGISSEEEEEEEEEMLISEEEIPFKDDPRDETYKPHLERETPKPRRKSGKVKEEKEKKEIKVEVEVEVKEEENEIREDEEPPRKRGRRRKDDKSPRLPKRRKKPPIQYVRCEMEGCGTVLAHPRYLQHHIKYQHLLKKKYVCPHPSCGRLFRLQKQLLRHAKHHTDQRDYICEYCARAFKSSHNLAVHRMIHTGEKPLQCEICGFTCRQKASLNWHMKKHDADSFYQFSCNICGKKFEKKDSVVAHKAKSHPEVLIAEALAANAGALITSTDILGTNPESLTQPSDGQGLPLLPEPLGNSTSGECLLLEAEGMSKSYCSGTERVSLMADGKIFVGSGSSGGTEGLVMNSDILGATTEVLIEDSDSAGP
T1 sequence (Q96SW2 whole entry): as the sequence (Q96SW2 whole entry) above
T1 sequence (Q16531 whole entry partner): as the sequence (Q16531 whole entry partner) above

Usually DC50 stands for the concentration giving 50% degradation. For `Cc1c(Cl)cc(NC(=O)NCc2ccc3c(c2)C(=O)N(C2CCC(=O)NC2=O)C3)cc1CN1C2CCC1COC2` (stereo not drawn) [Compound 138], the half-maximal degradation concentration (DC50) at GSPT1 was at most 100 nM. The ZFP91 degradation result on ZFP91 was “A”.

Regarding `Cc1ccc(NC(=O)NCc2ccc3c(c2)C(=O)N(C2CCC(=O)NC2=O)C3)cc1Cl` (stereo not drawn) [Compound 8], on GSPT1, the DC50 is at most 100 nM. Also, the ZFP91 degradation entry at ZFP91 is “B (B represents trace degradation at 30 μM (below 20%))”.

In the case of `Cc1ccc(NC(=O)OCc2ccc3c(c2)C(=O)N(C2CCC(=O)NC2=O)C3)cc1Cl` (stereo not drawn) [Compound 210], the tumor size result in data set [1] (3 mg/kg once daily) is “tumor size decreased and remained so until the end of the study”. The tumor size result in data set [1] (6 mg/kg, five days on and nine days off) is “tumor size decreased and remained so until the end of the study”. In data set [1] (oral administration), the body weight entry is on record as “no body weight loss observed” and the tumor growth result is recorded as “tumor growth inhibition”.

For `O=C1CCC(N2Cc3ccc(COC(=O)Nc4cc(OC(F)(F)F)ccc4F)cc3C2=O)C(=O)N1` (stereo not drawn) [Compound 345, (2-(2,6-dioxopiperidin-3-yl)-3-oxoisoindolin-5-yl)methyl(2-fluoro-5-(trifluoromethoxy)phenyl)carbamate], the “apoptosis (Caspase 3/7)” value in the data set with MM1S cell line is on record as “Apoptosis induction”.
